Experimental data: paper PMC5218480 (PLoS ONE, 2017)

Tested on: MV-4-11 cells
Assay: Gene expression microarray analysis (Affymetrix PrimeView) and GSEA
Format: cell-based, human
Parameters: RFU PODN (11730768_x_at) / Fold change /veh PODN (11730768_x_at) / RFU LINC00158 (11744669_a_at) / Fold change /veh LINC00158 (11744669_a_at) / RFU DUSP10 (11751237_a_at) / Fold change /veh DUSP10 (11751237_a_at) / RFU ID3 (11757404_x_at) / Fold change /veh ID3 (11757404_x_at) / RFU PLEKHG5 (11737974_s_at) / Fold change /veh PLEKHG5 (11737974_s_at) / RFU LRRC4B (11730491_at) / Fold change /veh LRRC4B (11730491_at) / RFU GIMAP4 (11747438_a_at) / Fold change /veh GIMAP4 (11747438_a_at) / RFU KRT8 (11758183_x_at) / Fold change /veh KRT8 (11758183_x_at) / RFU CNN1 (11734310_a_at) / Fold change /veh CNN1 (11734310_a_at) / RFU VPS37D (11726825_at) / Fold change /veh VPS37D (11726825_at) / RFU C10orf10 (11716522_x_at) / Fold change /veh C10orf10 (11716522_x_at) / RFU KIR2DL2 /// KIR2DL4 /// KIR2DL5A /// KIR2DL5B /// KIR2DS1 /// KIR2DS2 /// KIR2DS3 /// KIR2DS4 /// KIR3DL3 /// KIR3DL3 /// KIR3DS1 (11738374_at) / Fold change /veh KIR2DL2 /// KIR2DL4 /// KIR2DL5A /// KIR2DL5B /// KIR2DS1 /// KIR2DS2 /// KIR2DS3 /// KIR2DS4 /// KIR3DL3 /// KIR3DL3 /// KIR3DS1 (11738374_at) / RFU C1QL1 (11718748_at) / Fold change /veh C1QL1 (11718748_at) / RFU TMPRSS4 (11747572_a_at) / Fold change /veh TMPRSS4 (11747572_a_at) / RFU HAMP (11756126_x_at) / Fold change /veh HAMP (11756126_x_at) / RFU RNFT2 (11725882_a_at) / Fold change /veh RNFT2 (11725882_a_at) / RFU NR4A2 (11747474_a_at) / Fold change /veh NR4A2 (11747474_a_at) / RFU ABCC12 (11746883_a_at) / Fold change /veh ABCC12 (11746883_a_at) / RFU TMEM136 (11760407_x_at) / Fold change /veh TMEM136 (11760407_x_at) / RFU CLDN22 /// WWC2 (11732394_at) / Fold change /veh CLDN22 /// WWC2 (11732394_at) / RFU HLA-DPB1 (11760878_x_at) / Fold change /veh HLA-DPB1 (11760878_x_at) / RFU SPINT1 (11716480_a_at) / Fold change /veh SPINT1 (11716480_a_at) / RFU GAP43 (11754022_s_at) / Fold change /veh GAP43 (11754022_s_at) / RFU A4GNT (11735810_at) / Fold change /veh A4GNT (11735810_at) / RFU PRB3 (11715151_x_at) / Fold change /veh PRB3 (11715151_x_at) / RFU TUBB4B (11761932_at) / Fold change /veh TUBB4B (11761932_at) / RFU CAPN14 (11732068_a_at) / Fold change /veh CAPN14 (11732068_a_at) / RFU TMCC2 (11721928_a_at) / Fold change /veh TMCC2 (11721928_a_at) / RFU IRGQ (11745062_a_at) / Fold change /veh IRGQ (11745062_a_at) / RFU FAM174B (11720279_a_at) / Fold change /veh FAM174B (11720279_a_at) / RFU TMPRSS4 (11748680_a_at) / Fold change /veh TMPRSS4 (11748680_a_at) / RFU FAM212B (11763350_a_at) / Fold change /veh FAM212B (11763350_a_at) / RFU PLEKHG5 (11743358_a_at) / Fold change /veh PLEKHG5 (11743358_a_at) / RFU ZSCAN30 (11745921_a_at) / Fold change /veh ZSCAN30 (11745921_a_at) / RFU CMKLR1 (11741424_a_at) / Fold change /veh CMKLR1 (11741424_a_at) / RFU LOC101060620 /// MAPK8IP1 (11723275_at) / Fold change /veh LOC101060620 /// MAPK8IP1 (11723275_at) / RFU SPTSSB (11747773_x_at) / Fold change /veh SPTSSB (11747773_x_at) / RFU PRSS12 (11739890_at) / Fold change /veh PRSS12 (11739890_at) / RFU BIN1 (11741810_x_at) / Fold change /veh BIN1 (11741810_x_at) / RFU WNT11 (11732464_a_at) / Fold change /veh WNT11 (11732464_a_at) / RFU C10orf10 (11716521_a_at) / Fold change /veh C10orf10 (11716521_a_at) / RFU C5orf56 (11738089_at) / Fold change /veh C5orf56 (11738089_at) / RFU CYB561 (11721691_x_at) / Fold change /veh CYB561 (11721691_x_at) / RFU ANKRD19P (11752326_a_at) / Fold change /veh ANKRD19P (11752326_a_at) / RFU OR2T12 /// OR2T33 /// OR2T8 (11738714_s_at) / Fold change /veh OR2T12 /// OR2T33 /// OR2T8 (11738714_s_at) / RFU VCAN (11748164_a_at) / Fold change /veh VCAN (11748164_a_at) / RFU JSRP1 (11732532_at) / Fold change /veh JSRP1 (11732532_at) / RFU KRTAP10-11 (11738290_x_at) / Fold change /veh KRTAP10-11 (11738290_x_at) / RFU MYO3A (11730013_a_at) / Fold change /veh MYO3A (11730013_a_at) / RFU EBF3 (11725865_a_at) / Fold change /veh EBF3 (11725865_a_at) / RFU CAMK2N1 (11719241_x_at) / Fold change /veh CAMK2N1 (11719241_x_at) / RFU C5orf56 (11738088_a_at) / Fold change /veh C5orf56 (11738088_a_at) / RFU OLFML3 (11715873_a_at) / Fold change /veh OLFML3 (11715873_a_at) / RFU LOC100653217 /// NTM (11731650_a_at) / Fold change /veh LOC100653217 /// NTM (11731650_a_at) / RFU MAPK11 (11762145_a_at) / Fold change /veh MAPK11 (11762145_a_at) / RFU FIZ1 (11724087_x_at) / Fold change /veh FIZ1 (11724087_x_at) / RFU OASL (11726364_x_at) / Fold change /veh OASL (11726364_x_at) / RFU SOX15 (11748057_x_at) / Fold change /veh SOX15 (11748057_x_at) / RFU CD79A (11719716_a_at) / Fold change /veh CD79A (11719716_a_at) / RFU HIST1H1D (11736915_at) / Fold change /veh HIST1H1D (11736915_at) / RFU CASKIN2 (11723855_a_at) / Fold change /veh CASKIN2 (11723855_a_at) / RFU LOC730098 (11760151_x_at) / Fold change /veh LOC730098 (11760151_x_at) / RFU OR4N2 (11742367_at) / Fold change /veh OR4N2 (11742367_at) / RFU PRRT2 (11749266_a_at) / Fold change /veh PRRT2 (11749266_a_at) / RFU SNX32 (11753110_a_at) / Fold change /veh SNX32 (11753110_a_at) / RFU CDHR5 (11726645_a_at) / Fold change /veh CDHR5 (11726645_a_at) / RFU RCAN1 (11760418_a_at) / Fold change /veh RCAN1 (11760418_a_at) / RFU FAM167A (11723789_a_at) / Fold change /veh FAM167A (11723789_a_at) / RFU FAM26E (11764081_at) / Fold change /veh FAM26E (11764081_at) / RFU ISYNA1 (11749810_s_at) / Fold change /veh ISYNA1 (11749810_s_at) / RFU ACY1 (11761880_at) / Fold change /veh ACY1 (11761880_at) / RFU 11764098_at / Fold change /veh 11764098_at / RFU SAMD14 (11745864_x_at) / Fold change /veh SAMD14 (11745864_x_at) / RFU NPB (11741838_a_at) / Fold change /veh NPB (11741838_a_at) / RFU TMPRSS6 (11731388_a_at) / Fold change /veh TMPRSS6 (11731388_a_at) / RFU KRTAP10-2 (11738614_at) / Fold change /veh KRTAP10-2 (11738614_at) / RFU ARHGAP8 /// PRR5-ARHGAP8 (11727945_x_at) / Fold change /veh ARHGAP8 /// PRR5-ARHGAP8 (11727945_x_at) / RFU KRTAP5-7 /// NADSYN1 (11734609_at) / Fold change /veh KRTAP5-7 /// NADSYN1 (11734609_at) / RFU RASL12 (11751679_a_at) / Fold change /veh RASL12 (11751679_a_at) / RFU CDKN2B (11736163_a_at) / Fold change /veh CDKN2B (11736163_a_at) / RFU PRF1 (11729649_at) / Fold change /veh PRF1 (11729649_at) / RFU, ZNF638 /// ZNF638-IT1 / Fold change vs veh, ZNF638 /// ZNF638-IT1 / RFU, PANK3 / Fold change vs veh, PANK3 / RFU, SH3YL1 / Fold change vs veh, SH3YL1 / RFU, ZEB2 / Fold change vs veh, ZEB2 / RFU, NRIP1 / Fold change vs veh, NRIP1 / RFU, PTTG1IP / Fold change vs veh, PTTG1IP / RFU, CAPN2 / Fold change vs veh, CAPN2 / RFU, MED14 / Fold change vs veh, MED14 / RFU, SNORA58 / Fold change vs veh, SNORA58 / RFU, C1orf63 / Fold change vs veh, C1orf63 / RFU, LRRFIP1 / Fold change vs veh, LRRFIP1 / RFU, NDUFAF7 / Fold change vs veh, NDUFAF7 / RFU, SLC12A2 / Fold change vs veh, SLC12A2 / RFU, IBTK / Fold change vs veh, IBTK / RFU, ESF1 / Fold change vs veh, ESF1 / Fold change vs veh, TMEM50B / RFU, TAOK1 / Fold change vs veh, TAOK1 / RFU, ACBD3 / Fold change vs veh, ACBD3 / RFU, TMA16 / Fold change vs veh, TMA16 / RFU, RWDD3 / Fold change vs veh, RWDD3 / RFU, BCAT1 / Fold change vs veh, BCAT1 / RFU, EDEM3 / Fold change vs veh, EDEM3 / RFU, TMEM33 / Fold change vs veh, TMEM33 / RFU, WDR75 / Fold change vs veh, WDR75 / RFU, AHCTF1 / Fold change vs veh, AHCTF1 / RFU, TFRC / Fold change vs veh, TFRC / RFU, ZDHHC17 / Fold change vs veh, ZDHHC17 / RFU, NOM1 / Fold change vs veh, NOM1 / RFU, ARL8B / Fold change vs veh, ARL8B / RFU, ZBTB11 / Fold change vs veh, ZBTB11 / RFU, TAMM41 / Fold change vs veh, TAMM41 / RFU, KIAA1704 /// LOC100996395 / Fold change vs veh, KIAA1704 /// LOC100996395 / RFU, ING1 / Fold change vs veh, ING1 / RFU, TRMT61B / Fold change vs veh, TRMT61B / RFU, FUBP3 / Fold change vs veh, FUBP3 / RFU, TP53 / Fold change vs veh, TP53 / RFU, TNKS2 / Fold change vs veh, TNKS2 / RFU, ZFP14 / Fold change vs veh, ZFP14 / RFU, ACTR2 / Fold change vs veh, ACTR2 / RFU, PPP3R1 / Fold change vs veh, PPP3R1 / RFU, PIK3R1 / Fold change vs veh, PIK3R1 / RFU, HNRNPA1 / Fold change vs veh, HNRNPA1 / RFU, RNF170 / Fold change vs veh, RNF170 / RFU, ZNF28 / Fold change vs veh, ZNF28 / RFU, RNGTT / Fold change vs veh, RNGTT / RFU, OGT / Fold change vs veh, OGT / RFU, BRD1 / Fold change vs veh, BRD1 / RFU, MARS / Fold change vs veh, MARS / RFU, ZNF655 / Fold change vs veh, ZNF655 / RFU, FAHD1 / Fold change vs veh, FAHD1 / RFU, BDP1 / Fold change vs veh, BDP1 / RFU, LRRCC1 / Fold change vs veh, LRRCC1 / RFU, ARID1A / Fold change vs veh, ARID1A / RFU, ZNF146 / Fold change vs veh, ZNF146 / RFU, ZNF330 / Fold change vs veh, ZNF330 / RFU, GPN3 / Fold change vs veh, GPN3 / RFU, C9orf123 / Fold change vs veh, C9orf123 / RFU, N4BP2L2 / Fold change vs veh, N4BP2L2 / RFU, ARFIP1 / Fold change vs veh, ARFIP1 / RFU, FAM179B / Fold change vs veh, FAM179B / RFU, BCL10 / Fold change vs veh, BCL10 / RFU, UHRF1BP1L / Fold change vs veh, UHRF1BP1L / RFU, BET1 / Fold change vs veh, BET1 / RFU, CNOT2 / Fold change vs veh, CNOT2 / RFU, ZNF268 / Fold change vs veh, ZNF268 / Fold change vs veh, ZNF507 / RFU, DGCR2 / Fold change vs veh, DGCR2 / RFU, WDSUB1 / Fold change vs veh, WDSUB1 / Fold change vs veh, HSP90B1 /// MIR3652 / RFU, ADSS / Fold change vs veh, ADSS / RFU, GK / Fold change vs veh, GK / RFU, ZNF148 / Fold change vs veh, ZNF148 / RFU, TAF9 / Fold change vs veh, TAF9 / RFU, SLC1A5 / Fold change vs veh, SLC1A5 / RFU, SLMO2 / Fold change vs veh, SLMO2 / RFU, ABCC4 / Fold change vs veh, ABCC4 / RFU, LOC101060439 /// RAP1B / Fold change vs veh, LOC101060439 /// RAP1B / RFU, RFX7 / Fold change vs veh, RFX7 / RFU, GTPBP10 / Fold change vs veh, GTPBP10 / RFU, CNEP1R1 / Fold change vs veh, CNEP1R1 / RFU, BIVM-ERCC5 /// ERCC5 / Fold change vs veh, BIVM-ERCC5 /// ERCC5 / RFU, ILF3 / Fold change vs veh, ILF3 / RFU 11762660_at / Fold change /veh 11762660_at / RFU VCAN (11757783_s_at) / Fold change /veh VCAN (11757783_s_at) / RFU DDX43 (11728927_at) / Fold change /veh DDX43 (11728927_at) / RFU KRT8 (11758188_x_at) / Fold change /veh KRT8 (11758188_x_at) / RFU NKD1 (11759106_at) / Fold change /veh NKD1 (11759106_at) / RFU SRD5A1 (11742802_a_at) / Fold change /veh SRD5A1 (11742802_a_at) / RFU TPSAB1 /// TPSB2 (11721975_s_at) / Fold change /veh TPSAB1 /// TPSB2 (11721975_s_at) / RFU GSTM3 (11746129_a_at) / Fold change /veh GSTM3 (11746129_a_at) / RFU IL23R (11737362_x_at) / Fold change /veh IL23R (11737362_x_at) / RFU TMEM51 (11727254_a_at) / Fold change /veh TMEM51 (11727254_a_at) / RFU PIWIL2 (11732686_x_at) / Fold change /veh PIWIL2 (11732686_x_at) / RFU ORM1 (11744905_x_at) / Fold change /veh ORM1 (11744905_x_at) / RFU CCDC152 (11743942_at) / Fold change /veh CCDC152 (11743942_at) / RFU ECM1 (11717891_a_at) / Fold change /veh ECM1 (11717891_a_at) / RFU IL23R (11748794_a_at) / Fold change /veh IL23R (11748794_a_at) / RFU TNFAIP8L3 (11732012_x_at) / Fold change /veh TNFAIP8L3 (11732012_x_at) / RFU MBOAT4 (11741988_at) / Fold change /veh MBOAT4 (11741988_at) / RFU 11764193_at / Fold change /veh 11764193_at / RFU TMEM53 (11763286_at) / Fold change /veh TMEM53 (11763286_at) / RFU MAGEB2 (11727129_at) / Fold change /veh MAGEB2 (11727129_at) / RFU TMEM200A (11744735_a_at) / Fold change /veh TMEM200A (11744735_a_at) / RFU CCDC152 (11751479_a_at) / Fold change /veh CCDC152 (11751479_a_at) / RFU FAM211A (11726209_a_at) / Fold change /veh FAM211A (11726209_a_at) / RFU RGS16 (11746705_a_at) / Fold change /veh RGS16 (11746705_a_at) / RFU VCAN (11755009_s_at) / Fold change /veh VCAN (11755009_s_at) / RFU RHOB (11743442_s_at) / Fold change /veh RHOB (11743442_s_at) / RFU RGS16 (11720943_a_at) / Fold change /veh RGS16 (11720943_a_at) / RFU RGS16 (11720944_at) / Fold change /veh RGS16 (11720944_at) / RFU, VPS4B / Fold change vs veh, VPS4B / RFU, CREB1 / Fold change vs veh, CREB1 / RFU, DNAJC13 / Fold change vs veh, DNAJC13 / RFU, GNAQ / Fold change vs veh, GNAQ / RFU, CDK5R1 / Fold change vs veh, CDK5R1 / RFU, ZRANB3 / Fold change vs veh, ZRANB3 / RFU, CUL4A / Fold change vs veh, CUL4A / RFU, CCNY / Fold change vs veh, CCNY / RFU, UFL1 / Fold change vs veh, UFL1 / RFU, COG3 / Fold change vs veh, COG3 / RFU, DIAPH2 / Fold change vs veh, DIAPH2 / RFU, SKA2 / Fold change vs veh, SKA2 / RFU, AFF3 / Fold change vs veh, AFF3 / RFU, LMF1 / Fold change vs veh, LMF1 / RFU, IPO11 / Fold change vs veh, IPO11 / RFU, DFFB / Fold change vs veh, DFFB / RFU, FOXP1 / Fold change vs veh, FOXP1 / RFU, CARD8 / Fold change vs veh, CARD8 / RFU, STRN3 / Fold change vs veh, STRN3 / RFU, ADK / Fold change vs veh, ADK / RFU, RASSF2 / Fold change vs veh, RASSF2 / RFU, WIPF1 / Fold change vs veh, WIPF1 / RFU, LARP1B / Fold change vs veh, LARP1B / RFU, RASA1 / Fold change vs veh, RASA1 / RFU, RB1 / Fold change vs veh, RB1 / RFU, PPFIA1 / Fold change vs veh, PPFIA1 / RFU, MAT2A / Fold change vs veh, MAT2A / RFU, CCT5 / Fold change vs veh, CCT5 / RFU, WDR92 / Fold change vs veh, WDR92 / RFU, CUX1 / Fold change vs veh, CUX1 / RFU, TTC7A / Fold change vs veh, TTC7A / RFU, TMEM135 / Fold change vs veh, TMEM135 / RFU, DEPTOR / Fold change vs veh, DEPTOR / RFU, CPM / Fold change vs veh, CPM / RFU, DNAJB6 / Fold change vs veh, DNAJB6 / RFU, CACNA2D3 / Fold change vs veh, CACNA2D3 / RFU, DTX4 / Fold change vs veh, DTX4 / RFU, TFCP2 / Fold change vs veh, TFCP2 / RFU, GMCL1 /// GMCL1P1 / Fold change vs veh, GMCL1 /// GMCL1P1 / RFU, AEBP2 / Fold change vs veh, AEBP2 / RFU, SNHG1 /// SNORD22 /// SNORD25 /// SNORD26 /// SNORD27 /// SNORD28 /// SNORD29 /// SNORD31 / Fold change vs veh, SNHG1 /// SNORD22 /// SNORD25 /// SNORD26 /// SNORD27 /// SNORD28 /// SNORD29 /// SNORD31 / Fold change (Aza/veh), C12orf56 (ProbeSet 11735607_a_at) / Fold change (ACY-1035/veh), C12orf56 (ProbeSet 11735607_a_at) / Fold change (Aza/veh), FGFR1OP (ProbeSet 11751329_s_at) / Fold change (ACY-1035/veh), FGFR1OP (ProbeSet 11751329_s_at) / Fold change (Aza/veh), VPS36 (ProbeSet 11739960_a_at) / Fold change (ACY-1035/veh), VPS36 (ProbeSet 11739960_a_at) / RFU SYPL1 (11715823_x_at) / Fold change /veh SYPL1 (11715823_x_at) / RFU IGFBP7 (11715501_s_at) / Fold change /veh IGFBP7 (11715501_s_at) / RFU REEP3 (11722064_at) / Fold change /veh REEP3 (11722064_at) / RFU IGLL1 (11728026_x_at) / Fold change /veh IGLL1 (11728026_x_at): dose or concentration left out as unconfirmed
Conditions: ProbeSet 11716891_at; LIST B

Nc1ncn([C@@H]2O[C@H](CO)[C@@H](O)[C@H]2O)c(=O)n1 [azacitidine]
Fold change vs veh, C9orf123: 1.12
